The source of these data is patent US9700533B2, “Maternal chelation for embryo, fetal and infant benefit” (priority 2005, dated 2017).

A short description of assay [1]: Chelation-provoked urine test, urinary uranium. Conditions: for urinary uranium, times the reference range: Case 9. In kind it is in vivo, human.
Protocol: (§1) The terms “diagnostic provocation” and “chelation-provoked urine tests” and related terms refer to a procedure whereby the patient is administered one of more dosages of chelators, after which the patient's urine is collected for a defined period of time. The collected urine is analyzed for metal content, the metal having been removed from the patient's body by the chelators. The results of this procedure can indicate which metals are present in the patient's body and the approximate levels of the metals, which is subsequently used in designing a course of chelation therapy.
(§2) The metals may be measured with or without prior chelation provocation. The standard values accepted by medical laboratories are measured without chelation provocation. Treatment with chelation medication mobilizes metal stores within in the body to be detected in the urine, thus values obtained post-provocation will be increased.
The nature of assay [2]: Maternal chelation treatment, pregnancy, child and patient outcome. In kind it is in vivo, human. The note with it: for chronic fatigue / neurological development of the baby: Case 5; for chronic fatigue: calcium EDTA + vitamin C IV together with oral DMSA; for neurological development of the baby: parent treated preconceptionally with calcium EDTA + vitamin C IV and oral DMSA.

Assay [3] in a line: Chelation-provoked urine test, metals revealed (in words). Conditions: for metals excreted on provocation: Case 9, postpartum; for metals revealed on provocation: Case 11.
Protocol: as §1, §2
Assay [4] is described as follows: Chelation-provoked urine test, urinary tungsten. In kind it is in vivo, human. The note with it: Case 7; one 250-mg capsule DMSA orally, 6 hour urine.
Protocol: as §1, §2
Assay [5] can be described thus: Chelation-provoked urine test, urinary nickel. The assay is classed as in vivo, human.
Protocol: as §1, §2
Assay [6] in a line: Chelation-provoked urine test, urinary tin. In kind it is in vivo, human. The note with it: for urinary tin: Case 14.
Protocol: as §1, §2
Assay [7] in a line: Chelation-provoked urine test, urinary lead.
Protocol: as §1, §2
Assay [8] can be described thus: Chelation-provoked urine test, urinary cadmium. In kind it is in vivo, human.
Protocol: as §1, §2
For assay [9] the following is noted: Case 14.
Protocol: as §1, §2
For assay [10] the following is noted: Case 14. The source holds these as a separate data set.
Protocol: as §1, §2
The conditions of assay [11]: Case 5.
Protocol: as §1, §2
The conditions of assay [12]: Case 14. This is another data set of the same source.
Protocol: as §1, §2
Where [13] appears, read: Case 7, one 250-mg capsule DMSA orally, 6 hour urine.
Where [14] appears, read: DMSA 1000 mg PO x1, 6 hour urine.
Setting [15] is: Case 2, oral DMSA 250 mg three times a day, 24 hour urine.
The mark [16] stands for this setting: Case 4, after 4 months oral DMSA, 4 x 250 mg three times daily, 3 days per week.
Where [17] appears, read: Case 4, four capsules DMSA 250 mg, 6 hour urine, before treatment.
The mark [18] stands for this setting: Case 5, EDTA provocation, before treatment.
Setting [19] is: 3 grams calcium EDTA in 100 cc NS over 30 minutes, 6 hour urine.
Setting [20] is: Case 14, EDTA series, long-term follow up October 2005 after a little DMSA with essential daily defense.
[21] abbreviates: EDTA series, June 2004 after intravenous EDTA and DMPS chelation treatments.
Where [22] appears, read: EDTA series, long-term follow up October 2005 after a little DMSA with essential daily defense.
Setting [23] is: intravenous EDTA provocation January 2004, during the treatment period.
The mark [24] stands for this setting: Case 5, EDTA provocation, previously (before treatment).
The mark [25] stands for this setting: Case 14, EDTA series, June 2004 after intravenous EDTA and DMPS chelation treatments.
The mark [26] stands for this setting: Case 14, intravenous EDTA provocation January 2004, during the treatment period.
Setting [27] is: Case 13, 3 grams EDTA and 3 grams vitamin C intravenous push, 6 hour collection.

Each structure is given as a SMILES string. Like-named read-outs stand apart in the source and are kept apart here.

On to `O=C(O)C(S)C(S)C(=O)O` (stereo not shown) [DMSA, Dimercaptosuccinic Acid], for which, in assay [1] (setting [13]), the urinary uranium is recorded as 0.05 (normal <0.031) mcg/g creatinine. For the same compound, in assay [1] (setting [14]), the “urinary uranium, times the reference range” value is reported as greater than 100 × the reference range. Further, the “chronic fatigue during treatment” value in [2] (Case 4, during 4 months oral DMSA) was “chronic fatigue resolved”. Further, in assay [2], the chronic fatigue result is recorded as “chronic fatigue improved” and the “neurological development of the baby” value is recorded as “above average neurological development”. Also, the “metals revealed by chelation-provoked urine test” value in assay [3] (Case 6, oral DMSA challenge three days after delivery) is “presence of both lead and mercury”. The “metals excreted on provocation” value in [3] (setting [14]) was “excretion of a number of metals, including lead, mercury, cadmium and uranium”. Besides, the “metals revealed on challenge” value in assay [3] (Case 10, DMSA 250 mg PO x1, 6 hour urine) was “elevated amounts of lead, aluminum, antimony, barium, nickel, gallium, tin, tungsten, and uranium”. In assay [3] (1000 mg DMSA orally x1, 6 hour urine), the “metals revealed on provocation” value is “elevated levels of lead, mercury, tin, uranium and tungsten”. The urinary tungsten in assay [4] was 6.41 (normal <0.34) mcg/g creatinine. Besides, the urinary nickel in assay [5] (setting [13]) was 77 (normal <9.5) mcg/g creatinine. Also, in assay [6] (setting [15]), the “urinary tin after provocation” value is 9 mcg/g creatinine. The “urinary tin, follow up provocation” value in assay [6] (setting [16]) is recorded as 0.9 mcg/g creatinine. In assay [6] (setting [17]), the provoked urinary tin was found to be 12.5 mcg/g creatinine. In addition, the “follow-up chelation-provoked urine, total body lead” value in [7] (Case 1, after 15 cycles DMSA three capsules three times a day, three days a week) is “a decrease in total body lead”. Besides, the “urinary lead concentration on provocation” value in [7] (Case 1, oral DMSA 250 mg three times a day, 24 hour urine) is 20 mcg/g creatinine. Besides, the “urinary lead concentration after provocation” value in [7] (setting [15]) is recorded as 14 mcg/g creatinine. Moreover, the “urinary lead, follow up provocation” value in [7] (setting [16]) is on record as 1.34 mcg/g creatinine. For the same compound, the provoked urinary lead in assay [7] (setting [17]) was found to be 13.6 mcg/g creatinine. For the same compound, in [7] (setting [13]), the urinary lead is on record as 4.79 (normal <1.41) mcg/g creatinine. In [8] (setting [16]), the “urinary cadmium, follow up provocation” value turned out to be 0.18 mcg/g creatinine. In assay [8] (setting [17]), this compound registered a provoked urinary cadmium of 1.79 mcg/g creatinine.
As to `O=C(O)CN(CCN(CC(=O)O)CC(=O)O)CC(=O)O` [EDTA, Ethylenediamine Tetra-acetic Acid], the urinary uranium in [1] (setting [18]) is 0.33 (normal <0.013) mcg/g creatinine; in assay [1] (setting [20]), 0.012 mcg/g creatinine. Moreover, in assay [1] (setting [19]), the “urinary uranium, times the reference range” value is recorded as greater than 40 × the reference range. Moreover, the “child outcome after delivery” value in assay [2] (Case 8, oral EDTA 3000 mg per day with vitamin C, selenium and garlic) is “healthy and neurologically normal”. In [2] (Case 8, parent with lead and mercury, oral EDTA 3000 mg per day with vitamin C 5000 mg per day, selenium 200 micrograms three times per day, garlic 6000 mg per day), the delivery outcome is “normal delivery with no evidence of fetal distress”. Moreover, in [2] (Case 13, child, parents had ten intravenous EDTA chelations), the “neurological development of the child” value was “admirable neurological development”. The “metals excreted on provocation” value in [3] (setting [19]) was “significant excretion of lead, mercury, cadmium and uranium”. In addition, the “metals revealed on provocation” value in assay [3] (3 grams calcium EDTA in 100 cc normal saline IV over 30 minutes, 6 hour urine) is “elevated levels of lead, mercury, aluminum, cadmium, gadolinium, gallium, tin, tungsten, and uranium”. Further, the urinary arsenic in assay [9] (setting [21]) worked out at 32 mcg/g creatinine; in assay [9] (setting [22]), 46 mcg/g creatinine; in assay [9] (setting [23]) it was 90 mcg/g creatinine. The results for the urinary antimony in assay [10] (setting [21]), in assay [10] (setting [22]) and in assay [10] (setting [23]) were 0.15 mcg/g creatinine, 0.09 mcg/g creatinine and 0.18 mcg/g creatinine, respectively. Also, the urinary nickel in [5] (setting [18]) is 36.9 (normal <9.5) mcg/g creatinine; in assay [5] (setting [25]) it was 30 mcg/g creatinine; in assay [5] (setting [20]), 26 mcg/g creatinine; in assay [5] (setting [26]) it was 41 mcg/g creatinine. For the same compound, the “urinary nickel, times normal” value is given as 4 × normal in [5] (setting [24]); 3 × normal in assay [5] (Case 5, repeat EDTA provocation after calcium EDTA + vitamin C IV and oral DMSA treatment). Besides, in [11] (EDTA provocation, before treatment), the urinary aluminum is listed as 176.8 (normal <98.7) mcg/g creatinine. Further, the “urinary aluminum, times normal” value in assay [11] (EDTA provocation, previously (before treatment)) is listed as 2 × normal; in assay [11] (repeat EDTA provocation after calcium EDTA + vitamin C IV and oral DMSA treatment), 0.2 × normal. In addition, the urinary tin was 0.3 mcg/g creatinine in assay [6] (setting [21]), 0.4 mcg/g creatinine in assay [6] (setting [22]) and 0.6 mcg/g creatinine in assay [6] (setting [23]). Further, the urinary lead in [7] (setting [18]) is on record as 25.14 (normal <1.41) mcg/g creatinine; in assay [7] (setting [27]) it was 6.15 mcg/g creatinine; in assay [7] (setting [25]), 5.5 mcg/g creatinine; in assay [7] (setting [20]), 7.97 mcg/g creatinine; in assay [7] (setting [26]), 4.6 mcg/g creatinine. Also, the “urinary lead, times normal” value in assay [7] (setting [24]) is on record as 18 × normal; in assay [7] (Case 5, repeat EDTA provocation after 3 g calcium EDTA + 3 g vitamin C IV two times per week and DMSA 500 mg per day orally) it was 8 × normal. In addition, the urinary thorium in [12] (setting [21]) is 0.06 mcg/g creatinine; in [12] (setting [22]), 0 mcg/g creatinine; in assay [12] (setting [23]) it was 0.22 mcg/g creatinine. Further, the urinary cadmium is 3.18 (normal <0.76) mcg/g creatinine in assay [8] (setting [18]); 0.86 mcg/g creatinine in assay [8] (setting [27]); 1.75 mcg/g creatinine in assay [8] (setting [25]); 2.66 mcg/g creatinine in assay [8] (setting [20]); 1.59 mcg/g creatinine in assay [8] (setting [26]). The urinary mercury reads like this: under setting [27], 3.09 mcg/g creatinine; under setting [25], 0 mcg/g creatinine; under setting [20], 9.4 mcg/g creatinine; under setting [26], 0 mcg/g creatinine.
Consider `CC(=O)N[C@@H](CS)C(=O)O` [NAC, N-Acetyl-Cysteine], for which the “outcome of subsequent child” value in [2] (Case 3, 500 mg oral NAC per day throughout pregnancy, also vitamin C and selenium, previous child with attention deficit disorder) was “did not have attention deficit disorder”.
For `O=C([O-])CN(CCN(CC(=O)[O-])CC(=O)[O-])CC(=O)[O-].[Ca+2].[Na+].[Na+]` [calcium EDTA], in assay [2], the chronic fatigue entry is given as “chronic fatigue improved” and the “neurological development of the baby” value was “above average neurological development”.
